Test results: ChEMBL document CHEMBL4334516, “Kinase Chemodiversity from the Arctic: The Breitfussins” (J Med Chem, 2019)

How the values were obtained:
HT-29 = test: Cytotoxicity in human HT-29 cells assessed as reduction in cell viability by MTS assay; type: functional, cell-based; conditions: TDE = time-dependent effect
[1] = target: Receptor-interacting serine/threonine-protein kinase 2 (Homo sapiens, UniProt O43353); test: Inhibition of RIPK2 (unknown origin) assessed as residual enzyme activity at 50 uM by [33P]-ATP filter binding kinase assay relative to control
Aurora kinase B = Aurora kinase B (Homo sapiens, UniProt Q96GD4); test: Inhibition of Aurora B (unknown origin) assessed as residual enzyme activity at 1 uM by [33P]-ATP filter binding kinase assay relative to control
[2] = target: T1, Mitogen-activated protein kinase kinase kinase kinase 2 (Homo sapiens) (UniProt Q12851); test: Inhibition of GCK (unknown origin) assessed as residual enzyme activity at 1 uM by [33P]-ATP filter binding kinase assay relative to control
T1 sequence (whole entry): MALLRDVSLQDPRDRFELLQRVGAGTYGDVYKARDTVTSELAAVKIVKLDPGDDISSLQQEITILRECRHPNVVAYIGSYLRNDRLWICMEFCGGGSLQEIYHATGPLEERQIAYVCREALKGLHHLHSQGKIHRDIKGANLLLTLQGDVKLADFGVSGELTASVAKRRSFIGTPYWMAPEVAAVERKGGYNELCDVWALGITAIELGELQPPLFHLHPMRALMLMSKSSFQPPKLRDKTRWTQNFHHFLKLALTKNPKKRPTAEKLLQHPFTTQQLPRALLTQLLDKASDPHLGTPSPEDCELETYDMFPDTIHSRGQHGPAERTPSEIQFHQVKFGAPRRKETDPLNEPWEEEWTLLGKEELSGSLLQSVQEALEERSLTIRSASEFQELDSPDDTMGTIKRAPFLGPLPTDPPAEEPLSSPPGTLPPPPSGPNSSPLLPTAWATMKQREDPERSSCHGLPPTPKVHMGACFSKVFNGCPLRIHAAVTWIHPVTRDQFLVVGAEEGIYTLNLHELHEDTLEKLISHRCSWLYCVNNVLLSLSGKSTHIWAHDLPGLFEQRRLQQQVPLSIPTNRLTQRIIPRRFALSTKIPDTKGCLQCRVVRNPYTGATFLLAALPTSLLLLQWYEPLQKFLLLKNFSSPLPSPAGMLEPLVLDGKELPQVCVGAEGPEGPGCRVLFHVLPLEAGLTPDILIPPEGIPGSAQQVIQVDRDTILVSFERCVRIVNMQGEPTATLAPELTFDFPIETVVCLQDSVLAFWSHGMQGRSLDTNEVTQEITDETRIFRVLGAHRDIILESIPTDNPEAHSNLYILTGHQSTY

[3] = target: Mitogen-activated protein kinase kinase kinase 9 (Homo sapiens, UniProt P80192); test: Binding affinity to wild-type human partial length MLK1 (V88 to W426 residues) expressed in bacterial expression system assessed as residual binding level at 10 uM by active-site directed competition binding assay based Kinomescan method relative to control
[4] = target: Mitogen-activated protein kinase kinase kinase 11 (Homo sapiens, UniProt Q16584); test: Binding affinity to wild-type human partial length MLK3 (I77 to W399 residues) expressed in bacterial expression system assessed as residual binding level at 10 uM by active-site directed competition binding assay based Kinomescan method relative to control
[5] = target: Non-receptor tyrosine-protein kinase TYK2 (Homo sapiens, UniProt P29597); test: Binding affinity to wild-type human partial length TYK2 JH2 domain-pseudokinase expressed in mammalian expression system by active-site directed competition binding assay based Kinomescan method
[6] = Solubility in assay media (PTU-E3 water); type: physicochemical; conditions: buffer
[7] = Toxicity in zebrafish embryos assessed as induction of necrosis by measuring unaffected embryos level at 1.4 uM after 72 hrs (reference value: 100%); parameters: species or system Danio rerio; conditions: in vivo
[8] = Toxicity in zebrafish embryos assessed as induction of general edema by measuring unaffected embryos level at 1.4 uM after 72 hrs (reference value: 100%); parameters: species or system Danio rerio; conditions: in vivo
[9] = Unbound fraction in mouse plasma at 5 uM incubated for 6 hrs at 37 degC by LC-MS analysis based equilibrium dialysis; type: ADME, cell-free
Hs-578T = test: cells; conditions: Homo sapiens, 72 h
Description: Cytotoxicity in human Hs 578T cells assessed as reduction in cell viability incubated for 72 hrs by SRB assay

Chain of Non-receptor tyrosine-protein kinase TYK2 (P29597 whole entry, the tested form may be a part): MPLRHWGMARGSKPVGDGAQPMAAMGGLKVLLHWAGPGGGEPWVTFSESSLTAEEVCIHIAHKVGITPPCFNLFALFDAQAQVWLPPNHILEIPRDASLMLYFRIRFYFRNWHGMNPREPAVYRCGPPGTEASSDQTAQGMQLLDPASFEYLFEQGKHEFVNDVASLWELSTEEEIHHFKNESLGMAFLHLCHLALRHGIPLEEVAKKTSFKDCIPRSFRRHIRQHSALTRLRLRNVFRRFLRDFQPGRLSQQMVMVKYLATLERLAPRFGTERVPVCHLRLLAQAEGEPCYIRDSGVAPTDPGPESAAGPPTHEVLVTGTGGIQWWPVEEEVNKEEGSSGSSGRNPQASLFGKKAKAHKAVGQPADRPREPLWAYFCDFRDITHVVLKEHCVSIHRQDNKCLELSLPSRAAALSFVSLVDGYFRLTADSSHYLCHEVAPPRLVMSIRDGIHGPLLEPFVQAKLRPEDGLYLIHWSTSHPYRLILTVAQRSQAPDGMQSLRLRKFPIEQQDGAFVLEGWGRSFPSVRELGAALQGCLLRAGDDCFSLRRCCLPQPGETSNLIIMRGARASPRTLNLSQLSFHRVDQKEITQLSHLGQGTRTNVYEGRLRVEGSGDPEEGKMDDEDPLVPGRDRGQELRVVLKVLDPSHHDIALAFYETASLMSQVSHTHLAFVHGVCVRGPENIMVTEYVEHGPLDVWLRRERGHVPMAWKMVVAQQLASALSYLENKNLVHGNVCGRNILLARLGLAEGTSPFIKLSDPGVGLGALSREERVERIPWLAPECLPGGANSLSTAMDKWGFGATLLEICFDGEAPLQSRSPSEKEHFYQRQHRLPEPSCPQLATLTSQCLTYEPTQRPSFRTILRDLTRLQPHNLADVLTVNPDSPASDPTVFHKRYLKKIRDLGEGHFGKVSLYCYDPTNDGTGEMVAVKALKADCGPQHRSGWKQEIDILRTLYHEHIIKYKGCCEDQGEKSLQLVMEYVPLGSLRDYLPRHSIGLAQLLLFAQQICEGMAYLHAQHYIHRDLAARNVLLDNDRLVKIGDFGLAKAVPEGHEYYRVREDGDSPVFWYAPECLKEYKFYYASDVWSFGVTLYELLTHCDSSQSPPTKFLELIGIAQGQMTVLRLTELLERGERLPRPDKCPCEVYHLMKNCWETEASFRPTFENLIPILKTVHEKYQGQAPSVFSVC
Chain of Aurora kinase B (Q96GD4 whole entry): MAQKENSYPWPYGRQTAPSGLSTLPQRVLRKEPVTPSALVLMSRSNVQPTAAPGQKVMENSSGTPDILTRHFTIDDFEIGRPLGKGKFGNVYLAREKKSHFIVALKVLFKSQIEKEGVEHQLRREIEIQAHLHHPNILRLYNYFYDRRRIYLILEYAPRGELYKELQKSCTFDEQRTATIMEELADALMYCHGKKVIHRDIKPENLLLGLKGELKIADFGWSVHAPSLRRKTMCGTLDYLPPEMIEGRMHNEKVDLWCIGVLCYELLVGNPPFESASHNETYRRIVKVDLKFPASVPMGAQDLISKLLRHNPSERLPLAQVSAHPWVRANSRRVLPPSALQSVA
Chain of Mitogen-activated protein kinase kinase kinase 11 (Q16584 whole entry, looked up, the tested form may be a part): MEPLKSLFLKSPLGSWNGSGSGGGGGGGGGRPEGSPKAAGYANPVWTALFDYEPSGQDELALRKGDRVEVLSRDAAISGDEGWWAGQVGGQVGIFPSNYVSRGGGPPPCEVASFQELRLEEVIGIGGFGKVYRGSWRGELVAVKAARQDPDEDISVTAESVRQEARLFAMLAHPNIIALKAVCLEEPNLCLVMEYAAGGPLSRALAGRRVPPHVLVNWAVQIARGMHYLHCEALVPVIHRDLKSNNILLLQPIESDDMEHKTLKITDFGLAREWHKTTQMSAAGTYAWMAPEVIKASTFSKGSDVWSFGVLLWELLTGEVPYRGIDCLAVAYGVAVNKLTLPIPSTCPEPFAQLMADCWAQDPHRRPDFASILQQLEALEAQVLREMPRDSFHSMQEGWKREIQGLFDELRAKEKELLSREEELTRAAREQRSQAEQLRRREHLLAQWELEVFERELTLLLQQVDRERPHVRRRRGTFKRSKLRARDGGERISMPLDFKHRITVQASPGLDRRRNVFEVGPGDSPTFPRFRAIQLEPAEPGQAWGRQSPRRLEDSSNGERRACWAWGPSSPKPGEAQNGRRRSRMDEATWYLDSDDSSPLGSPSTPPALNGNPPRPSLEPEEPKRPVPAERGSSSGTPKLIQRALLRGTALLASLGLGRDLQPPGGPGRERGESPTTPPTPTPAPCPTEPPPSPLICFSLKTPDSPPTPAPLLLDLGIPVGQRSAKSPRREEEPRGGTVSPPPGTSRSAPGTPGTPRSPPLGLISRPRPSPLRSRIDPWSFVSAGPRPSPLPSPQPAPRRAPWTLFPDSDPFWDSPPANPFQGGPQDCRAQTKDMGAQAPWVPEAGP
Chain of Mitogen-activated protein kinase kinase kinase 9 (P80192 whole entry, looked up, the tested form may be a part): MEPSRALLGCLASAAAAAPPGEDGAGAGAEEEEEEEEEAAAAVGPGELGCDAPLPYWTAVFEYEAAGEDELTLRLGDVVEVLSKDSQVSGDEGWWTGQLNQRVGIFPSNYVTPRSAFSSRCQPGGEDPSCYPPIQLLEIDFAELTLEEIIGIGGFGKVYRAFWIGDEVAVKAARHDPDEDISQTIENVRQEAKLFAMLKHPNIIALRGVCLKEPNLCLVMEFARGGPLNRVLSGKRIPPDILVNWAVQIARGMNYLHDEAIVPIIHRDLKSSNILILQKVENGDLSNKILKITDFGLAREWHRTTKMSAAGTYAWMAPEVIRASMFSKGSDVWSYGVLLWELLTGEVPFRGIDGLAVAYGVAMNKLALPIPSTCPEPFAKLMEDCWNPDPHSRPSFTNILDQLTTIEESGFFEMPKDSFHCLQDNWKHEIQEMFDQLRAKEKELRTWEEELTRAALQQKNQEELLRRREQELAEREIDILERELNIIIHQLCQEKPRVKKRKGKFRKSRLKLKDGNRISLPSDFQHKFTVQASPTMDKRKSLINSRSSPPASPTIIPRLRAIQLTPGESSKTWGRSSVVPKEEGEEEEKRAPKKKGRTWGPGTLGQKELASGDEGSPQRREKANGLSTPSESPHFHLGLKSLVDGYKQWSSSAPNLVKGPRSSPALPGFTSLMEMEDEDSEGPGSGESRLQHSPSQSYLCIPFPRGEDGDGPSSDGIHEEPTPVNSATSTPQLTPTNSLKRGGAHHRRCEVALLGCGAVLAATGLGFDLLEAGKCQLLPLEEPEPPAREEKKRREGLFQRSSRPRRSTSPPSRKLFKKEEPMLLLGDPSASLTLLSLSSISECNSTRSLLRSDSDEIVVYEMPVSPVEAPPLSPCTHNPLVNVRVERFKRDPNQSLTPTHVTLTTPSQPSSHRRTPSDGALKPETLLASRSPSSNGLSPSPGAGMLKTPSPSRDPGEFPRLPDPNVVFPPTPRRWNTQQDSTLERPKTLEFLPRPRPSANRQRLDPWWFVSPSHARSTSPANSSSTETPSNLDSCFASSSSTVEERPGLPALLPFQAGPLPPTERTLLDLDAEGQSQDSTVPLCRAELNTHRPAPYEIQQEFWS
Chain of Receptor-interacting serine/threonine-protein kinase 2 (O43353 whole entry): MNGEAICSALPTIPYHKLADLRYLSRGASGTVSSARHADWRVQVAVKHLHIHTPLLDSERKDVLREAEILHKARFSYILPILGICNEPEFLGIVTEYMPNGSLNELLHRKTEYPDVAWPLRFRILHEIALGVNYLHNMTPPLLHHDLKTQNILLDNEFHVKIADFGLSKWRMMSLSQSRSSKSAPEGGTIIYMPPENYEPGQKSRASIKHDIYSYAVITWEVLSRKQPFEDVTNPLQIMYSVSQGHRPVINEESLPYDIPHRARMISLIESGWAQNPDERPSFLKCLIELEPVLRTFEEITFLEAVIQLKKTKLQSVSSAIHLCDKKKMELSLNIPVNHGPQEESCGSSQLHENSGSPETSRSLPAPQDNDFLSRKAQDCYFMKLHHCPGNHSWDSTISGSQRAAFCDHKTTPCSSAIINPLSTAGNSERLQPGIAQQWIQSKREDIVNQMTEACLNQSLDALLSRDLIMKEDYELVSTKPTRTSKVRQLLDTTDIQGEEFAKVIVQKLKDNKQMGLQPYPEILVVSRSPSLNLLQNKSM

COc1cc2c(-c3cnc(-c4ccc[nH]4)o3)c[nH]c2cc1Br
Activity (HT-29): Tde
Activity [1]: 10%
Activity (Aurora kinase B): 33%
Activity [2]: 31%
Activity [3]: 59%
Activity [4]: 56%
Kd [5]: 1.8 µM
solubility [6]: Insoluble
Activity [7]: 0%
Activity [8]: 100%
Fu [9]: 0.3%
IC50 (Hs-578T): 5.22 µM
